Data from article PMC3968527, “Dynamic mass redistribution analysis of endogenous β-adrenergic receptor signaling in neonatal rat cardiac fibroblasts” (Pharmacology Research & Perspectives, 2014).
Where two headings read alike, the source gives them in different places.

How the values were obtained:
cAMP generation in NRCF = assay: FRET detection of cAMP generation using ICUE3 in NRCF; type: cell-based, rat; conditions: for effect on ISO-induced FRET (cAMP generation): antagonist 10 μmol/L, ISO 1 μmol/L
Procedure: ICUE3 adenovirus (Ad-ICUE3) was generously supplied by Dr. Yang Xiang (UC Davis). NRCF were seeded in the fibronectin-coated 10 mm glass-bottom insert of 35 mm dishes (MatTek Corporation, Ashland, MA) at 5 × 10^4 cells/10 mm insert and infected with Ad-ICUE3 at a multiplicity of infection (MOI) of 40 for 24 h with or without CTX addition (100 ng/mL overnight). 24 h after infection, the cells were rinsed and media replaced with imaging buffer, as previously described (Tilley et al. [2010]), prior to imaging using a Leica DMI4000B inverted microscope with a Leica DFC365 FX 1.4-megapixel monochrome digital camera with cyan fluorescent protein (CFP) excitation and CFP and yellow fluorescent protein (YFP) emissions measured every 2 sec. Cells were pretreated for 5 min with buffer or antagonists then, following 30 sec of baseline reads, the cells were stimulated with isoproterenol. The entire field-of view at 20× magnification was used to capture changes in fluorescence resonance energy transfer (FRET) in the NRCF population and each treatment condition was performed independently at least three times. Quantification of the ICUE3 ratio was calculated as changes in CFP emission/YFP emission over time, normalized to baseline.
EC50 and Emax values were attained via nonlinear regression curve fitting of the DMR, ICUE3, or EGFR internalization responses using Prism 5.0 software (GraphPad Software Inc.; San Diego, CA). Statistical analyses were performed using a one-way analysis of variance (ANOVA) followed by a Newman–Keuls multiple comparisons test or a two-tailed unpaired t-test, as appropriate. A value of P < 0.05 was considered statistically significant.

[1] = test system: endogenous βAR in primary neonatal rat cardiac fibroblasts (NRCF); assay: Dynamic mass redistribution (DMR) response to βAR ligands in NRCF; type: cell-based; conditions: for EC50: read-out: EC50 (DMR)
dynamin = test system: dynamin; parameters: method as in Kirchhausen et al. [2008]; conditions: known/reported IC50; ref Kirchhausen et al. [2008]; cited from earlier work
Flag-EGFR-mYFP = assay: EGFR internalization, on-cell western for loss of surface Flag-EGFR-mYFP in NRCF; type: cell-based, rat; conditions: Fig. 7C, 60 min treatment
Procedure: NRCF were seeded either in 35 mm glass-bottom dishes as described above or in clear-bottom black-walled 96-well plates (655090; Greiner Bio-One, Monroe, NC) at 3 × 10^4 cells/well and infected with Ad-Flag-EGFR-mYFP (constructed at Vector Biolabs, Philadelphia, PA) at an MOI of 200 for 24 h prior to stimulation with agonist as indicated. After 1 h, cells were fixed in 4% paraformaldehyde (163201145; Wako Chemicals, Richmond, VA) for 20 min, rinsed with phosphate-buffered saline (Corning/Cellgro, 21-030-CV) and on-cell western staining (nonpermeabolized) was performed using anti-Flag M2 antibody (1:1000, 3 h at RT, Sigma, F1804), IRDye® 800CW Conjugated Goat (polyclonal) Anti-mouse secondary antibody (1:1000, 1 h at RT, LI-COR, 926-32210) and DRAQ5 (1:5000, 1 h at RT, Cell Signaling Technology, #4084) following the LI-COR on-cell protocol. Flag and DRAQ5 signals were detected using Odyssey CLx infrared imaging system (LI-COR Biosciences, Lincoln, NE) and YFP signal was measured with a Tecan M1000 plate reader. Amount of EGFR internalization was calculated by normalizing the Flag signal to both the DRAQ5 (cell number control) and YFP (infection control) signals: Flag/DRAQ5/YFP. […] San Diego, CA). Statistical analyses were performed using a one-way analysis of variance (ANOVA) followed by a Newman–Keuls multiple comparisons test or a two-tailed unpaired t-test, as appropriate. […]

EGFR in NRCF = assay: EGFR-dependent DMR response to EGF in NRCF; type: cell-based, rat
[2] = antagonist 10 μmol/L, ISO 100 nmol/L
[3] = Rattus norvegicus, Cardiac fibroblast, agonist + buffer, 3-day-old NRCF
[4] = agonist + buffer, 3-day-old NRCF
[5] = agonist + cholera toxin (100 ng/mL)
[6] = βAR antagonist alone, positive-deflected DMR (inverse agonism)
[7] = agonist + propranolol (1 μmol/L)

Cn1cc(C(F)(F)F)nc1-c1ccc(OCC(O)CNCCOc2ccc(O)c(C(N)=O)c2)cc1 (stereo not shown) [CGP 20712A]
effect on ISO-induced FRET (cAMP generation) (cAMP generation in NRCF): partial blockade | DMR response of antagonist alone ([1]; 100 μmol/L, likely due to a toxic effect on the cells): extreme positive DMR deflection | effect on ISO-mediated DMR effect [1, 2]: very small, though significant, decrease

CC(CCc1ccc(O)cc1)NCCc1ccc(O)c(O)c1 (stereo not shown) [Dobutamine]
DMR responses in presence of Prop ([1]; Prop 1 μmol/L): completely blocked | EC50 [1, 3]: 134 ± 11.7 nM | Emax (DMR) [1, 4]: −217.1 ± 3.5 pm | Emax (DMR) [1, 5]: −86.0 ± 3.4 pm | maximal DMR response, % of the ISO and Sal responses ([1]; at micromolar concentrations): ~75% | EC50 [1, 5]: 50 ± 16.8 nM

O=C(N/N=C/c1ccc(O)c(O)c1)c1cc2ccccc2cc1O [Dyn, dynasore]
effect on ISO-mediated DMR effect ([1]; Dyn pretreatment 100 μmol/L, 30 min): enhanced | IC50 (dynamin): 15000 nM

COc1cc2ncnc(Nc3ccc(F)c(Cl)c3)c2cc1OCCCN1CCOCC1 [Gef, gefitinib]
ISO-induced DMR response after pretreatment, % of the buffer-pretreated ISO response ([1]; ISO 100 nmol/L, CTX 100 ng/mL overnight, Gef 1 μmol/L): ~65% | reduction of the ISO DMR response ([1]; ISO 100 nmol/L, CTX 100 ng/mL overnight, Gef 1 μmol/L, Fig. 7F): ~35%

Cc1ccc(OCC(O)C(C)NC(C)C)c2c1CCC2 (stereo not shown) [ICI 188,551, ICI 118,551]
effect on ISO-induced FRET (cAMP generation) (cAMP generation in NRCF): significantly blocked | effect on ISO-mediated DMR effect [1, 2]: very significantly reduced | Emax (DMR) [1, 6]: 117.3 ± 5.4 pm | EC50 [1, 6]: 192 ± 61.7 nM

CC(C)NCC(O)c1ccc(O)c(O)c1 (stereo not shown) [Isoproterenol]
EC50 (cAMP generation in NRCF; Rattus norvegicus, Fig. 5B): 7.4 ± 5.6 nM | Emax (DMR) ([1]; 8-day-old NRCF, Fig. 1D): −40 ± 5.3 pm | ISO DMR response, % of the response attained with 2.5 × 10^4 cells ([1]; ISO 100 nmol/L, 1 × 10^4 cells per well): ~25% | ISO DMR response, % of the response attained with 2.5 × 10^4 cells ([1]; ISO 100 nmol/L, 1.5 × 10^4 cells per well): ~50% | EC50 [1, 3]: 15.4 ± 4.2 nM | Emax (DMR) [1, 4]: −266.1 ± 8.2 pm | Emax (DMR) [1, 5]: −109.6 ± 6.4 pm | Emax (DMR) [1, 7]: −247.6 ± 4.3 pm | EC50 [1, 7]: 809 ± 84.1 nM | EC50 [1, 5]: 30.1 ± 17.4 nM | EC50 (Flag-EGFR-mYFP): 17.1 ± 5.5 nM

CC(C)NCC(O)COc1cccc2ccccc12 (stereo not shown) [Propranolol, propranolol]
effect on ISO-induced FRET (cAMP generation) (cAMP generation in NRCF): significantly blocked | effect on ISO-mediated DMR effect [1, 2]: very significantly reduced | Emax (DMR) [1, 6]: 81.2 ± 2.5 pm

COc1ccc(C2CNC(=O)C2)cc1OC1CCCC1 (stereo not shown) [Rol, rolipram]
effect on ISO-mediated ICUE3 response (cAMP generation in NRCF; Rol 10 nmol/L): significantly enhanced | effect on ISO-mediated DMR response ([1]; Rol 10 nmol/L): significantly enhanced

CC(C)(C)NCC(O)c1ccc(O)c(CO)c1 (stereo not shown) [Salbutamol, salbutamol]
EC50 [1, 3]: 15.6 ± 0.8 nM | Emax (DMR) [1, 4]: −257.1 ± 1.8 pm | Emax (DMR) [1, 5]: −122.4 ± 2.1 pm | Emax (DMR) [1, 7]: −251.9 ± 6.3 pm | EC50 [1, 5]: 30.1 ± 4.9 nM

cholera toxin [CTX]
effect on ISO-dependent cAMP generation (cAMP generation in NRCF): substantially reduced | ISO-induced DMR response after pretreatment, % of the buffer-pretreated ISO response [1]: ~35% | reduction of the ISO DMR response [1]: ~65%

epidermal growth factor [EGF]
EC50 (EGFR in NRCF; Fig. S2D, read-out: EC50 (positive-deflected DMR)): < 1 nM | EC50 (EGFR in NRCF; printed in picture of Fig. S2D, read-out: EC50 (peak DMR)): 0.45 ± 0.03 nM
